Reference: patent US11986532B2 (Arvinas Operations, Inc., priority 2021, dated 2024)
Where two headings read alike, the source gives them in different places.

Target: T1, BCL6 (Homo sapiens, UniProt P41182)
T1 construct: endogenous in cells; host or cells: T47D breast cancer epithelial cells
Test: Immunofluorescence protocol for high content imaging of BCL6 (degradation) in T47D cells, 3 days compound treatment
Format: cell-based
Conditions: for DC50: read-out: Mean DC50 (nM)* category; for Dmax: read-out: Mean Dmax (%)** category
Outline: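 High content immunofluorescence imaging (10×, 4 fields/well) of BCL6 using rabbit primary antibody, Alexa-488 secondary, cell mask and Hoechst nuclear stain after PFA fixation. Before staining, T47D cells (7K/well) were exposed for 3 days at 37° C to 3-fold serial dilutions of compound, top final concentration 0.1 or 1 μM.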

[1] = T47D cells, 3 days compound treatment

SMILES | DC50 [1] [nM] | Dmax [1] [%] | Dmax (T47D) [%] | DC50 [nM]
CNC(=O)COc1cc2cc(Nc3nc(N4CCC(C(C)(C)N5CC6(CCN(c7cccc8c7CN(C7CCC(=O)NC7=O)C8=O)CC6)C5)CC4)ncc3Cl)ccc2n(C(C)C)c1=O (centres unmarked) [Compound 8, 2-{[6-({5-chloro-2-[4-(2-{7-[2-(2,6-dioxopiperidin-3-yl)-1-oxo-2,3-dihydro-1H-isoindol-4-yl]-2,7-diazaspiro[3.5]nonan-2-yl}propan-2-yl)piperidin-1-yl]pyrimidin-4-yl}amino)-2-oxo-1-(propan-2-yl)-1,2-dihydroquinolin-3-yl]oxy}-N-methylacetamide] | < 10 | ≥ 70 | – | –
CNC(=O)COc1cc2cc(Nc3nc(N4CCC(O[C@H]5C[C@H](N6CCC(c7cc8c(cc7OC(C)C)C(=O)N(C7CCC(=O)NC7=O)C8=O)CC6)C5)CC4)ncc3Cl)ccc2n(C(C)C)c1=O (some centres unmarked) [Compound 159, 2-[[6-[[5-chloro-2-[4-[3-[4-[2-(2,6-dioxo-3-piperidyl)-6-isopropoxy-1,3-dioxo-isoindolin-5-yl]-1-piperidyl]cyclobutoxy]-1-piperidyl]pyrimidin-4-yl]amino]-1-isopropyl-2-oxo-3-quinolyl]oxy]-N-methyl-acetamide] | < 10 | ≥ 70 | – | –
CNC(=O)COc1cc2cc(Nc3nc(N4CCC(O[C@H]5C[C@H](N6CCN(c7ccc8c(n7)CN(C7CCC(=O)NC7=O)C8=O)CC6)C5)CC4)ncc3Cl)ccc2n(C(C)C)c1=O (some centres unmarked) [Compound 189, 2-((6-((5-chloro-2-(4-((1r,3r)-3-(4-(6-(2,6-dioxopiperidin-3-yl)-5-oxo-6,7-dihydro-5H-pyrrolo[3,4-b]pyridin-2-yl)piperazin-1-yl)cyclobutoxy)piperidin-1-yl)pyrimidin-4-yl)amino)-1-isopropyl-2-oxo-1,2-dihydroquinolin-3-yl)oxy)-N-methylacetamide] | < 10 | 50 to 70 | – | –
CNC(=O)COc1cc2cc(Nc3nc(N4CCC(O[C@H]5C[C@H](N6CCN(c7ccc8c(n7)C(C)N(C7CCC(=O)NC7=O)C8=O)[C@H](C)C6)C5)CC4)ncc3Cl)ccc2n(C(C)C)c1=O (stereo in doubt) [Compound 203, 2-({6-[(5-chloro-2-{4-[(1r,3r)-3-[(3R)-4-[6-(2,6-dioxopiperidin-3-yl)-7-methyl-5-oxo-5H,6H, 7H-pyrrolo[3,4-b]pyridin-2-yl]-3-methylpiperazin-1-yl]cyclobutoxy]piperidin-1-yl}pyrimidin-4-yl)amino]-2-oxo-1-(propan-2-yl)-1,2-dihydroquinolin-3-yl}oxy)-N-methylacetamide] | < 10 | ≥ 70 | – | –
CNC(=O)COc1cc2cc(Nc3nc(N4CCC(O[C@H]5C[C@H](N6CC[C@H](c7ccc8c(c7F)CN([C@H]7CCC(=O)NC7=O)C8=O)C[C@H]6C)C5)CC4)ncc3Cl)ccc2n(C(C)C)c1=O [Compound 295, 2-({6-[(5-chloro-2-{4-[(1r,3r)-3-[(2R,4S)-4-{2-[(3S)-2,6-dioxopiperidin-3-yl]-4-fluoro-1-oxo-2,3-dihydro-1H-isoindol-5-yl}-2-methylpiperidin-1-yl]cyclobutoxy]piperidin-1-yl}pyrimidin-4-yl)amino]-2-oxo-1-(propan-2-yl)-1,2-dihydroquinolin-3-yl}oxy)-N-methylacetamide] | – | – | ≥ 70 | < 10

More lines, now with the values ahead:

DC50 [1] [nM] | Dmax [1] [%] | Dmax (T47D) [%] | DC50 [nM] | SMILES
< 10 | 50 to 70 | – | – | CNC(=O)COc1cc2cc(Nc3nc(N4CCC(CN5CC6(CCN(c7ccc8c(c7)CN(C7CCC(=O)NC7=O)C8=O)CC6(F)F)C5)CC4)ncc3Cl)ccc2n(C(C)C)c1=O (centres unmarked) [Compound 136, 2-{[6-({5-chloro-2-[4-({7-[2-(2,6-dioxopiperidin-3-yl)-1-oxo-2,3-dihydro-1H-isoindol-5-yl]-5,5-difluoro-2,7-diazaspiro[3.5]nonan-2-yl}methyl)piperidin-1-yl]pyrimidin-4-yl}amino)-2-oxo-1-(propan-2-yl)-1,2-dihydroquinolin-3-yl]oxy}-N-methylacetamide]
– | – | ≥ 70 | < 10 | CNC(=O)COc1cc2c(F)c(Nc3nc(N4CCC(CN5CCC6(CC5)CC5(CN(c7ccc8c(c7)CN(C7CCC(=O)NC7=O)C8=O)C5)C6)CC4)ncc3Cl)ccc2n(C(C)C)c1=O (centres unmarked) [Compound 421, 2-{[6-({5-chloro-2-[4-({2-[2-(2,6-dioxopiperidin-3-yl)-1-oxo-2,3-dihydro-1H-isoindol-5-yl]-2,9-diazadispiro [3.1.56.14]dodecan-9-yl}methyl)piperidin-1-yl]pyrimidin-4-yl}amino)-5-fluoro-2-oxo-1-(propan-2-yl)-1,2-dihydroquinolin-3-yl]oxy}-N-methylacetamide]
< 10 | ≥ 70 | – | – | CNC(=O)COc1cc2c(F)c(Nc3nc(N4CCC(O[C@H]5C[C@H](N6CCN(c7ccc8c(c7C)C(=O)N(C7CCC(=O)NC7=O)C8=O)[C@H](C)C6)C5)CC4)ncc3Cl)ccc2n(C(C)C)c1=O (some centres unmarked) [Compound 199]
< 10 | 50 to 70 | – | – | CNC(=O)COc1cc2cc(Nc3nc(N4CCC(CN5CCC6(CN(c7ccc8c(c7)CN(C7CCC(=O)NC7=O)C8=O)C6)C(F)(F)C5)CC4)ncc3Cl)ccc2n(C(C)C)c1=O (centres unmarked) [Compound 90, 2-{[6-({5-chloro-2-[4-({2-[2-(2,6-dioxopiperidin-3-yl)-1-oxo-2,3-dihydro-1H-isoindol-5-yl]-5,5-difluoro-2,7-diazaspiro[3.5]nonan-7-yl}methyl)piperidin-1-yl]pyrimidin-4-yl}amino)-2-oxo-1-(propan-2-yl)-1,2-dihydroquinolin-3-yl]oxy}-N-methylacetamide]
10 to 50 | 50 to 70 | – | – | CNC(=O)COc1cc2cc(Nc3nc(N4CCCC4)ncc3Cl)ccc2n(CCOc2ccc3c(c2)C(=O)N(C2CCC(=O)NC2=O)C3=O)c1=O (centres unmarked) [Compound 32, 2-[(6-{[5-chloro-2-(pyrrolidin-1-yl)pyrimidin-4-yl]amino}-1-(2-{[2-(2,6-dioxopiperidin-3-yl)-1,3-dioxo-2,3-dihydro-1H-isoindol-5-yl]oxy}ethyl)-2-oxo-1,2-dihydroquinolin-3-yl)oxy]-N-methylacetamide]
< 10 | 50 to 70 | – | – | CNC(=O)COc1cc2cc(Nc3nc(N4CCC(CN5CC6(CCN(c7ccc8c(c7)C(=O)N(C7CCC(=O)NC7=O)C8=O)CC6(F)F)C5)CC4)ncc3Cl)ccc2n(C(C)C)c1=O (centres unmarked) [Compound 135, 2-{[6-({5-chloro-2-[4-({7-[2-(2,6-dioxopiperidin-3-yl)-1,3-dioxo-2,3-dihydro-1H-isoindol-5-yl]-5,5-difluoro-2,7-diazaspiro[3.5]nonan-2-yl}methyl)piperidin-1-yl]pyrimidin-4-yl}amino)-2-oxo-1-(propan-2-yl)-1,2-dihydroquinolin-3-yl]oxy}-N-methylacetamide]
– | – | 50 to 70 | < 10 | CNC(=O)COc1cc2cc(Nc3nc(N4CCN(CC5CC6(CCN(c7ccc8c(c7F)CN(C7CCC(=O)NC7=O)C8=O)CC6)C5)CC4)ncc3Cl)ccc2n(C(C)C)c1=O (centres unmarked) [Compound 319, 2-{[6-({5-chloro-2-[4-({7-[2-(2,6-dioxopiperidin-3-yl)-4-fluoro-1-oxo-2,3-dihydro-1H-isoindol-5-yl]-7-azaspiro[3.5]nonan-2-yl}methyl)piperazin-1-yl]pyrimidin-4-yl}amino)-2-oxo-1-(propan-2-yl)-1,2-dihydroquinolin-3-yl]oxy}-N-methylacetamide]
< 10 | ≥ 70 | – | – | CNC(=O)COc1cc2cc(Nc3nc(N4CCC(OC5CN([C@H]6CC[C@@H](c7ccc8c(c7F)CN(C7CCC(=O)NC7=O)C8=O)CC6)C5)CC4)ncc3Cl)ccc2n(C(C)C)c1=O (some centres unmarked) [Compound 184]
